biological target: T1, PARP7 (Homo sapiens, UniProt Q7Z3E1); assay: PARP7 TR-FRET assay (binding, displacement of biotinylated Probe A); details: 6 nM PARP7, 2 nM Probe A, 25° C., 30 min
T1 sequence (Q7Z3E1 1-657): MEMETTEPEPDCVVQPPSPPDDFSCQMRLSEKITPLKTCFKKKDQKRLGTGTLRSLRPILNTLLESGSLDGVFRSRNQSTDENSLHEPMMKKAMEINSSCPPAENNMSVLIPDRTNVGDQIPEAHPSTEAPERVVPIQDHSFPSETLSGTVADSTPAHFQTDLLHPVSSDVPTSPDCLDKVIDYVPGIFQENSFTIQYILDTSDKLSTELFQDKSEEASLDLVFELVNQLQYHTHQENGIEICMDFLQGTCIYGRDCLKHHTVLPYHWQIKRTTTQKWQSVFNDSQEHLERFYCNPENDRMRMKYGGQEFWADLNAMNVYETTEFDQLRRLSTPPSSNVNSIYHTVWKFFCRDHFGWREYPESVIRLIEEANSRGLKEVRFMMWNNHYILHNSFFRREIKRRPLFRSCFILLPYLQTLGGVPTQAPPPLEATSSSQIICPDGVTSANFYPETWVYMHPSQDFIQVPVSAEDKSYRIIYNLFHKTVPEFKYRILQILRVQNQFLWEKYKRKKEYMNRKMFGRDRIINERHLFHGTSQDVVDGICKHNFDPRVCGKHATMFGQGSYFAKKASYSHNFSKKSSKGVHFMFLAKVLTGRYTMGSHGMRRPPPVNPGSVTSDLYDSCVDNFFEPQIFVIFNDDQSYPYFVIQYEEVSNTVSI
In short: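 His-tagged PARP7 at 6 nM was preincubated with compound and 2 nM biotinylated Probe A for 30 min at 25° C (HEPES pH 8.0, NaCl, BSA, DTT, Tween20). Europium-streptavidin/ULight-anti-His FRET was read as the 665/615 nm ratio after a further 30 min. IC50 was fitted from % inhibition normalised to vehicle and blank.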

Compound | IC50 [µM]
O=C(CC1CN(c2n[nH]c(=O)c3ccc(N4CC(F)(F)C4)cc23)CCO1)N1CCN(c2ncc(C(F)(F)F)cn2)CC1 (single isomer, unassigned) [Compound 220] | < 0.1
COCC(=O)Nc1ccc2c(c1)N(c1cc(C(F)(F)F)c(=O)[nH]n1)CC(CC(=O)N1CCN(c3ncc(C(F)(F)F)cn3)CC1)O2 (single isomer, unassigned) [Compound 284] | 0.1 to 1
CC(C)(O)c1cnc(N2CCN(C(=O)CC3CN(c4cc(C(F)(F)F)c(=O)[nH]n4)c4cc(F)ccc4O3)CC2)nc1 (single isomer, unassigned) [Compound 348] | < 0.1
O=C(OC[C@@H]1CCCN1c1cc(C(F)(F)F)c(=O)[nH]n1)N1CCN(c2ncc(C(F)(F)F)cn2)CC1 [Compound 87] | < 0.1
O=C(c1cccc(Oc2n[nH]c(=O)c(C(F)(F)F)c2N2CC(C3CC3)C2)c1)N1CCN(c2ncc(C(F)(F)F)cn2)CC1 [Compound 180] | < 0.1
Cc1c(Oc2cccc(C(=O)N3CC[C@@H](Oc4ncc(C(F)(F)F)cn4)C3)c2)n[nH]c(=O)c1C(F)(F)F [Compound 29] | > 1
O=C(CC1CN(c2n[nH]c(=O)c3ccc(Cl)cc23)CCO1)N1CCN(c2ncc(C(F)(F)F)cn2)CC1 (single isomer, unassigned) [Compound 100] | < 0.1
N#CC1CN(c2c(Oc3cccc(C(=O)N4CCN(c5ncc(C(F)(F)F)cn5)CC4)c3)n[nH]c(=O)c2C(F)(F)F)C1 [Compound 60] | < 0.1
O=C(CC1CN(c2cc(C(F)(F)F)c(=O)[nH]n2)c2cc(F)ccc2O1)N1CCN(c2ncc(OC(F)(F)F)cn2)CC1 (single isomer, unassigned) [Compound 311] | < 0.1
N#CC1(c2ccnc(N3CCN(C(=O)CC4CN(c5cc(C(F)(F)F)c(=O)[nH]n5)c5cc(F)ccc5O4)CC3)n2)CC1 (single isomer, unassigned) [Compound 343] | < 0.1
O=C(CC1CN(c2n[nH]c(=O)c3ccc(F)cc23)CCO1)N1CCN(c2ncc(C(F)(F)F)cn2)CC1 (single isomer, unassigned) [Compound 51] | 0.1 to 1
N#Cc1cnc(N2CCN(C(=O)CC3CN(c4cc(C(F)(F)F)c(=O)[nH]n4)c4cc(Cl)ccc4O3)CC2)nc1 (single isomer, unassigned) [Compound 293] | < 0.1
C[C@@H]1CN(C(=O)c2cc(Oc3n[nH]c(=O)c(C(F)(F)F)c3N3CC4(C3)CC(F)(F)C4)ccn2)CCN1c1ncc(Cl)cn1 [Compound 319] | < 0.1
COC1CN(c2c(Oc3ccnc(C(=O)N4CCN(c5ncc(C(F)(F)F)cn5)[C@H](C)C4)c3)n[nH]c(=O)c2C(F)(F)F)C1 [Compound 342] | < 0.1
C#Cc1cnc(N2CCN(C(=O)c3cccc(Oc4n[nH]c(=O)c(C(F)(F)F)c4N4CC5(COC5)C4)c3)CC2)nc1 [Compound 302] | < 0.1
O=C(CC1CN(c2cc(C(F)(F)F)c(=O)[nH]n2)CCC1(F)F)N1CCN(c2ncc(C(F)(F)F)cn2)CC1 (single isomer, unassigned) [Compound 80] | < 0.1
C#Cc1ccc2c(=O)[nH]nc(N3CCOC(CC(=O)N4CCN(c5ncc(C(F)(F)F)cn5)CC4)C3)c2c1 (single isomer, unassigned) [Compound 195] | < 0.1
COC1CN(c2c(Oc3ccnc(C(=O)N4CCN(c5ncc(C(F)(F)F)cn5)CC4)c3)n[nH]c(=O)c2C(F)(F)F)C1 [Compound 315] | < 0.1
O=C(c1cccc(Oc2n[nH]c(=O)cc2C(F)(F)F)c1)N1CCN(c2ncc(C(F)(F)F)cn2)CC1 [Compound 18] | > 1
O=C(CC1CN(c2cc(C(F)(F)F)c(=O)[nH]n2)c2cc(C(F)F)ccc2O1)N1CCN(c2cnc(C(F)(F)F)cn2)CC1 (single isomer, unassigned) [Compound 146] | 0.1 to 1
Cn1cc(-c2ccc3c(c2)N(c2cc(C(F)(F)F)c(=O)[nH]n2)CC(CC(=O)N2CCN(c4ncc(C(F)(F)F)cn4)CC2)O3)cn1 (single isomer, unassigned) [Compound 193] | < 0.1
C[C@@H]1CN(c2cc(C(F)(F)F)c(=O)[nH]n2)C[C@H](CC(=O)N2CCN(c3ncc(C(F)(F)F)cn3)CC2)O1 (stereo in doubt) [Compound 110] | 0.1 to 1

Now from value to compound:

IC50 [µM] | Compound
0.1 to 1 | O=C(CC1CN(c2n[nH]c(=O)c3ccc(C4CC4)cc23)CCO1)N1CCN(c2ncc(C(F)(F)F)cn2)CC1 (single isomer, unassigned) [Compound 105]
< 0.1 | O=C(c1cccc(Oc2n[nH]c(=O)c(C(F)(F)F)c2N2CC3(CCO3)C2)c1)N1CCN(c2ncc(C(F)(F)F)cn2)CC1 [Compound 212]
< 0.1 | CC(=O)N1CCN(C(=O)c2cccc(Oc3n[nH]c(=O)c(C(F)(F)F)c3N3CC4(CCC4)C3)c2)CC1 [Compound 160]
< 0.1 | O=C(CC[C@@H]1COCCN1c1cc(C(F)(F)F)c(=O)[nH]n1)N1CCN(c2ncc(C(F)(F)F)cn2)CC1 [Compound 58]
< 0.1 | N#Cc1ccc(N2CCN(C(=O)CC3CN(c4cc(C(F)(F)F)c(=O)[nH]n4)c4cc(F)ccc4O3)CC2)nc1 (single isomer, unassigned) [Compound 268]
0.1 to 1 | Cc1c(Oc2cc(Cl)cc(C(=O)N3CCN(c4ncc(C(F)(F)F)cn4)CC3)c2)n[nH]c(=O)c1C(F)(F)F [Compound 22]
< 0.1 | O=C(c1cncc(Oc2n[nH]c(=O)c(C(F)(F)F)c2N2CC(C3CC3)C2)c1)N1CCN(c2ncc(C(F)F)cn2)CC1 [Compound 279]
0.1 to 1 | C#Cc1ccc2c(N3CCOC(CC(=O)N4CCN(c5ncc(C(F)(F)F)cn5)CC4)C3)n[nH]c(=O)c2c1 (single isomer, unassigned) [Compound 196]
< 0.1 | O=C(c1cncc(Oc2n[nH]c(=O)c(C(F)(F)F)c2N2CC3(CCCO3)C2)c1)N1CCN(c2ncc(Cl)cn2)CC1 [Compound 234]
0.1 to 1 | O=C(c1cccc(Oc2n[nH]c(=O)c(C(F)(F)F)c2N2CC3(CCC3)C2)c1)N1CCn2c(nnc2C(F)(F)F)C1 [Compound 178]
> 1 | C#Cc1cc(N2CCOCC2C(=O)N2CCN(c3ncc(C(F)(F)F)cn3)CC2)n[nH]c1=O (stereo not shown) [Compound 46]
< 0.1 | CS(=O)(=O)c1ccc2c(c1)N(c1cc(C(F)(F)F)c(=O)[nH]n1)CC(CC(=O)N1CCN(c3ncc(C(F)(F)F)cn3)CC1)O2 (single isomer, unassigned) [Compound 205]
0.1 to 1 | O=C(CC1CN(c2cc(C(F)(F)F)c(=O)[nH]n2)c2ccccc2O1)N1CCN(c2ncc(Cl)cn2)CC1 (single isomer, unassigned) [Compound 295]
0.1 to 1 | C[C@H]1CN(c2n[nH]c(=O)c3cccc(F)c23)C[C@@H](CC(=O)N2CCN(c3ncc(C(F)(F)F)cn3)CC2)O1 (stereo in doubt) [Compound 120]
< 0.1 | O=C(CC1CN(c2cc(C(F)(F)F)c(=O)[nH]n2)c2ccccc2O1)N1CCN(c2ccc(Cl)cn2)CC1 (single isomer, unassigned) [Compound 261]
0.1 to 1 | CN1CC[C@H](OCC(=O)N2CCN(c3ncc(C(F)(F)F)cn3)CC2)c2n[nH]c(=O)c(C(F)(F)F)c21 (single isomer, unassigned) [Compound 5]
< 0.1 | C[C@@H]1C[C@@H](OCC(=O)N2CCN(c3ncc(C(F)(F)F)cn3)CC2)c2n[nH]c(=O)c(C(F)(F)F)c2O1 [Compound 56]
< 0.1 | Cc1c(N(C)c2cccc(C(=O)N3CCN(c4ncc(C(F)(F)F)cn4)CC3)c2)n[nH]c(=O)c1C(F)(F)F [Compound 77]
0.1 to 1 | N#Cc1ccc2c(=O)[nH]nc(N3CCOC(CC(=O)N4CCN(c5ncc(C(F)(F)F)cn5)CC4)C3)c2c1 (single isomer, unassigned) [Compound 244]
< 0.1 | N#Cc1ccc(N2CCN(C(=O)CC3CN(c4cc(C(F)(F)F)c(=O)[nH]n4)c4cc(C#N)ccc4O3)CC2)nc1 (single isomer, unassigned) [Compound 215]
< 0.1 | O=C(CC1CN(c2cc(C(F)(F)F)c(=O)[nH]n2)c2cc(Cl)ccc2O1)N1CCN(c2ncc(C(F)(F)F)cn2)CC1 (single isomer, unassigned) [Compound 133]
< 0.1 | O=C(CO[C@@H]1C[C@@H](CC2CC2)Oc2c1n[nH]c(=O)c2C(F)(F)F)N1CCN(c2ncc(C(F)(F)F)cn2)CC1 (stereo in doubt) [Compound 144]
< 0.1 | O=C(c1cncc(Oc2n[nH]c(=O)c(C(F)(F)F)c2N2CC(C3CC3)C2)c1)N1CCN(c2ncc(C(F)(F)F)cn2)CC1 [Compound 278]
< 0.1 | N#Cc1cnc(N2CCN(C(=O)c3cc(Oc4n[nH]c(=O)c(C(F)(F)F)c4N4CC5(C4)CC(F)(F)C5)ccn3)CC2)nc1 [Compound 305]
< 0.1 | O=C(CC1CN(c2cc(C(F)(F)F)c(=O)[nH]n2)CCO1)N1CCN(c2ncc(C(F)(F)F)cn2)CC1 (single isomer, unassigned) [Compound 31]
0.1 to 1 | Cc1c(Oc2cc(C(=O)N3CCN(c4ncc(C(F)(F)F)cn4)CC3)ccc2Cl)n[nH]c(=O)c1C(F)(F)F [Compound 24]
< 0.1 | C[C@@H]1CN(C(=O)c2cccc(Oc3n[nH]c(=O)c(C(F)(F)F)c3N3CC4(C3)CC(F)(F)C4)c2)CCN1c1ncc(C#N)cn1 [Compound 341]

From patent US20240343727A1, “PYRIDAZINONE OR PYRIDINONE COMPOUNDS, PREPARATION METHODS AND USES THEREOF” (InventisBio Co., Ltd., priority 2021, published 2024)
